US20240408169A1 (priority 2023, published 2024)
*1 amine or outer side, *2 acyl side, *3 side chain or, on linkers, in order; H or OH if unused. Where a SMILES comes first, the peptide text is derived from it. Bridges are numbered along the chain shown (N, C = ends). [ ]: non-standard residue; d: D form. The star is where a group is joined. NMe(hhhLys) = CN([C@@H](CCCCCCCN[*:3])C(=O)[*:2])[*:1]; Cyclopropanecarbonyl(1-CF3) = O=C(C1(C(F)(F)F)CC1)*; NMePhe(2,5-Cl2) = CN[C@@H](Cc1cc(Cl)ccc1Cl)C(=O)O; Pro(trans-4-F) = O=C(O)[C@@H]1C[C@@H](F)CN1; X155 = C[C@@](O)(C(=O)*)C(F)(F)F; Gly(cPr) = N[C@H](C(=O)O)C1CC1

Columns and labels:
CyclinA2/CDK2 = biological target: T1, CyclinA2/CDK2 (Homo sapiens, UniProt P20248); assay: Fluorescence Polarization (FP) competitive binding assay, Cyclin A2/Cdk2; settings: 8 nM Cyclin A2/Cdk2, 2 nM FAM probe; average of 2-3 independent experiments; read-out: Cyclin A FP IC50;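 note: plates equilibrated two hours at room temperature before polarization reading, IC50 fitted from eight-concentration compound titration curves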
T1 construct: purchased CRELUX Protein Services

CyclinE1/CDK2 = biological target: T2, CyclinE1/CDK2 (Homo sapiens, UniProt P24864); assay: Fluorescence Polarization (FP) competitive binding assay, Cyclin E1/Cdk2; settings: 10 nM Cyclin E1/Cdk2, 2 nM FAM probe; average of 2-3 independent experiments; read-out: Cyclin E FP IC50;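 note: readings taken after two-hour equilibration at room temperature in HEPES buffer with NaCl, DTT, NP-40 and BSA, IC50 fitted from eight-concentration serial dilution series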
T2 construct: purchased Eurofins, discovery 14-475

CyclinB1/CDK1 = biological target: T3, CyclinB1/CDK1 (Homo sapiens, UniProt P14635); assay: Fluorescence Polarization (FP) competitive binding assay, Cyclin B1/Cdk1; settings: 10 nM Cyclin B1/Cdk1, 2 nM FAM probe; average of 2-3 independent experiments; read-out: Cyclin B FP IC50;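 note: fluorescence polarization read after equilibration at room temperature, with IC50 taken from serially diluted dose-response curves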
T3 construct: purchased Eurofins, discovery 14-450

NCI-H1048 cells = assay: MTT proliferation assay, NCI-H1048; format: cell-based; settings: 5 days compound exposure, 1:3 serial dilution starting at 10 μM;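 note: Dose-response in 96-well plates over 8 or 10 concentration points, with exposure spanning 3-4 cell doublings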
OVCAR3 cells = assay: MTT proliferation assay, OVCAR3; format: cell-based; settings: 5 days compound exposure, 1:3 serial dilution starting at 10 μM;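 note: compound given as an 8- or 10-point series, one day after plating, with exposure covering roughly 3-4 cell doublings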

| SMILES | IC50 (CyclinA2/CDK2) | IC50 (CyclinE1/CDK2) | IC50 (CyclinB1/CDK1) | GI50 (NCI-H1048 cells) | GI50 (OVCAR3 cells) |
| --- | --- | --- | --- | --- | --- |
| CC(C)C[C@@H]1NC(=O)[C@@H](N(C)C(=O)[C@@H](NC(=O)[C@@H]2C[C@@H](F)CN2C(=O)C2(C(F)(F)F)CCC2)C2CC2)CC=CCCCCNC(=O)[C@H](Cc2cc(Cl)cnc2OC2CC2)N(C)C1=O (single isomer, unassigned) [Example 107-P2] | 110 nM | 180 nM | 20 nM | 190 nM | 320 nM |
| Cc1nnc(-c2ccc(Cl)cc2C[C@H]2C(=O)NCCCCC=CC[C@H](N(C)C(=O)[C@@H](NC(=O)[C@@H]3C[C@@H](F)CN3C(=O)C3(C(F)(F)F)CCC3)C3CC3)C(=O)N[C@@H](CC(C)C)C(=O)N2C)o1 (single isomer, unassigned) [Example 117-P1] | 80 nM | 340 nM | 20 nM | 230 nM | 180 nM |
| Cc1nnc(-c2ccc(Cl)cc2C[C@H]2C(=O)NCCCCC=CC[C@H](N(C)C(=O)[C@@H](NC(=O)[C@@H]3C[C@@H](F)CN3C(=O)C3(C(F)(F)F)CCC3)C3CC3)C(=O)N[C@@H](CC(C)C)C(=O)N2C)o1 (single isomer, unassigned) [Example 117-P2] | 60 nM | 160 nM | 20 nM | 90 nM | 60 nM |
| Cc1nnc(-c2ccc(Cl)cc2C[C@H]2C(=O)NCCCCC=CC[C@H](N(C)C(=O)[C@@H](NC(=O)[C@@H]3C[C@@H](F)CN3C(=O)C3(C(F)(F)F)CC(F)(F)C3)C3CC3)C(=O)N[C@@H](CC(C)C)C(=O)N2C)o1 (single isomer, unassigned) [Example 118-P1] | 110 nM | 740 nM | 20 nM | 180 nM | 170 nM |
| Cc1nnc(-c2ccc(Cl)cc2C[C@H]2C(=O)NCCCCC=CC[C@H](N(C)C(=O)[C@@H](NC(=O)[C@@H]3C[C@@H](F)CN3C(=O)C3(C(F)(F)F)CC(F)(F)C3)C3CC3)C(=O)N[C@@H](CC(C)C)C(=O)N2C)o1 (single isomer, unassigned) [Example 118-P2] | 60 nM | 300 nM | 20 nM | 50 nM | 50 nM |
| CC(C)C[C@@H]1NC(=O)[C@@H](N(C)C(=O)[C@@H](NC(=O)[C@@H]2C[C@@H](F)CN2C(=O)C2(C(F)(F)F)CCC2)C2CC2)CC=CCCCCNC(=O)[C@H](Cc2cc(Cl)ccc2Oc2ncccn2)N(C)C1=O (single isomer, unassigned) [Example 156-P1] | 890 nM | 830 nM | 20 nM | 480 nM | 530 nM |
| CC(C)C[C@@H]1NC(=O)[C@@H](N(C)C(=O)[C@@H](NC(=O)[C@@H]2C[C@@H](F)CN2C(=O)C2(C(F)(F)F)CCC2)C2CC2)CC=CCCCCNC(=O)[C@H](Cc2cc(Cl)ccc2Oc2ncccn2)N(C)C1=O (single isomer, unassigned) [Example 156-P2] | 350 nM | 240 nM | 20 nM | 90 nM | 100 nM |
| CC[C@H](NC(=O)[C@@H]1C[C@@H](F)CN1C(=O)C1(C(F)(F)F)CC1)C(=O)N[C@H]1CC=CCCCCNC(=O)[C@H](Cc2cc(Cl)ccc2Cl)N(C)C(=O)[C@H](CC(C)C)NC1=O [Example 2] | 110 nM | 100 nM | 20 nM | 380 nM | 410 nM |
| CC(C)C[C@@H]1NC(=O)[C@@H](NC(=O)CNC(=O)[C@@H]2C[C@@H](F)CN2C(=O)C2(C(F)(F)F)CC2)CC=CCCCCNC(=O)[C@H](Cc2cc(Cl)ccc2Cl)N(C)C1=O [Example 3] | 620 nM | 680 nM | 20 nM | 460 nM | 720 nM |
| CC(C)C[C@@H]1NC(=O)[C@@H](NC(=O)[C@@H](NC(=O)[C@@H]2C[C@@H](F)CN2C(=O)C2(C(F)(F)F)CC(F)(F)C2)C2CC2)CC=CCCCCNC(=O)[C@H](Cc2cc(Cl)ccc2Cl)N(C)C1=O [Example 4] | 90 nM | 100 nM | 20 nM | 120 nM | 60 nM |
| CC(C)C[C@@H]1NC(=O)[C@@H](NC(=O)[C@@H](NC(=O)[C@@H]2C[C@@H](F)CN2C(=O)C2(C(F)(F)F)CC(F)(F)C2)C2CC2)CCCCCCCNC(=O)[C@H](Cc2cc(Cl)ccc2Cl)N(C)C1=O [Example 8] | 30 nM | 100 nM | 20 nM | 20 nM | 30 nM |
| CC(C)C[C@@H]1NC(=O)[C@@H](N(C)C(=O)[C@@H](NC(=O)[C@@H]2C[C@@H](F)CN2C(=O)C2(C(F)(F)F)CC2)C2CC2)CCCCCCCNC(=O)[C@H](Cc2cc(Cl)ccc2Cl)N(C)C1=O [Example 9] ({Cyclopropanecarbonyl(1-CF3)}-[Pro(trans-4-F)][Gly(cPr)][NMe(hhhLys)]L[NMePhe(2,5-Cl2)]; lactam 3-C) | 250 nM | 400 nM | 20 nM | 80 nM | 110 nM |
| CC(C)C[C@@H]1NC(=O)[C@@H](N(C)C(=O)[C@@H](NC(=O)[C@@H]2C[C@@H](F)CN2C(=O)[C@@](C)(O)C(F)(F)F)C2CC2)CCCCCCCNC(=O)[C@H](Cc2cc(Cl)ccc2Cl)N(C)C1=O [Example 10] (X155-[Pro(trans-4-F)][Gly(cPr)][NMe(hhhLys)]L[NMePhe(2,5-Cl2)]; lactam 3-C) | 100 nM | 120 nM | 20 nM | 20 nM | 30 nM |
| CC(C)C[C@@H]1NC(=O)[C@@H](NC(=O)[C@@H](NC(=O)[C@@H]2C[C@@H](F)CN2C(=O)C2(C(F)(F)F)CC2)C2CC2)CC=CCCCCN(C)C(=O)[C@H](Cc2cc(Cl)ccc2Cl)N(C)C1=O [Example 11] | 170 nM | 100 nM | 20 nM | 80 nM | 210 nM |
| CC(C)C[C@@H]1NC(=O)[C@@H](NC(=O)[C@@H](NC(=O)[C@@H]2C[C@@H](F)CN2C(=O)C2(C(F)(F)F)CC(F)(F)C2)C2CC2)CC=CCCCCN(C)C(=O)[C@H](Cc2cc(Cl)ccc2Cl)N(C)C1=O [Example 12] | 60 nM | 100 nM | 20 nM | 30 nM | 40 nM |
| CC[C@H](NC(=O)[C@@H]1C[C@@H](F)CN1C(=O)C1(C(F)(F)F)CC1)C(=O)N[C@H]1CC=CCCCCN(C)C(=O)[C@H](Cc2cc(Cl)ccc2Cl)N(C)C(=O)[C@H](CC(C)C)NC1=O [Example 13] | 100 nM | 100 nM | 20 nM | 70 nM | 240 nM |
| CC(C)C[C@@H]1NC(=O)[C@@H](N(C)C(=O)[C@@H](NC(=O)[C@@H]2C[C@@H](F)CN2C(=O)C2(C(F)(F)F)CC(F)(F)C2)C2CC2)CC=CCCCCNC(=O)[C@H](Cc2cc(Cl)ccc2C2=CCN(S(C)(=O)=O)CC2)N(C)C1=O [Example 23] | 120 nM | 5470 nM | 20 nM | 180 nM | 210 nM |
| CC(C)C[C@@H]1NC(=O)[C@@H](N(C)C(=O)[C@@H](NC(=O)[C@@H]2C[C@@H](F)CN2C(=O)C2(C(F)(F)F)CC(F)(F)C2)C2CC2)CC=CCCCCNC(=O)[C@H](Cc2cc(Cl)ccc2C2=CC[C@H](O)CC2)N(C)C1=O [Example 24] | 60 nM | 1600 nM | 20 nM | 90 nM | 170 nM |
| CC(C)C[C@@H]1NC(=O)[C@@H](N(C)C(=O)[C@@H](NC(=O)[C@@H]2C[C@@H](F)CN2C(=O)C2(C(F)(F)F)CC(F)(F)C2)C2CC2)CC=CCCCCNC(=O)[C@H](Cc2cc(Cl)ccc2-c2cnn(CCO)c2)N(C)C1=O [Example 28] | 40 nM | 740 nM | 20 nM | 80 nM | 170 nM |
| CC(C)C[C@@H]1NC(=O)[C@@H](N(C)C(=O)[C@@H](NC(=O)[C@@H]2C[C@@H](F)CN2C(=O)C2(C(F)(F)F)CC(F)(F)C2)C2CC2)CC=CCCCCN(C)C(=O)[C@H](Cc2cc(Cl)ccc2-c2cnn(C)c2)N(C)C1=O [Example 29] | 30 nM | 690 nM | 20 nM | 40 nM | 70 nM |
| CC(C)C[C@@H]1NC(=O)[C@@H](N(C)C(=O)[C@@H](NC(=O)[C@@H]2C[C@@H](F)CN2C(=O)C2(C(F)(F)F)CC(F)(F)C2)C2CC2)CC=CCCCCN(C)C(=O)[C@H](Cc2cc(Cl)ccc2-c2cncnc2)N(C)C1=O [Example 30] | 240 nM | 5050 nM | 20 nM | 130 nM | 140 nM |
| CC(=O)N1CC=C(c2ccc(Cl)cc2C[C@H]2C(=O)N(C)CCCCC=CC[C@H](N(C)C(=O)[C@@H](NC(=O)[C@@H]3C[C@@H](F)CN3C(=O)C3(C(F)(F)F)CC(F)(F)C3)C3CC3)C(=O)N[C@@H](CC(C)C)C(=O)N2C)CC1 [Example 31] | 30 nM | 2200 nM | 20 nM | 80 nM | 150 nM |
| CC(C)C[C@@H]1NC(=O)[C@@H](N(C)C(=O)[C@@H](NC(=O)[C@@H]2C[C@@H](F)CN2C(=O)C2(C(F)(F)F)CC(F)(F)C2)C2CC2)CC=CCCCCN(C)C(=O)[C@H](Cc2cc(F)ccc2-c2cnn(C)c2)N(C)C1=O [Example 37] | 50 nM | 370 nM | 20 nM | 40 nM | 50 nM |
| CC(C)C[C@@H]1NC(=O)[C@@H](N(C)C(=O)[C@@H](NC(=O)[C@@H]2C[C@@H](F)CN2C(=O)C2(C(F)(F)F)CC(F)(F)C2)C2CC2)CC=CCCCCN(C)C(=O)[C@H](Cc2cc(F)ccc2-c2cncnc2)N(C)C1=O [Example 38] | 180 nM | 1760 nM | 20 nM | 60 nM | 160 nM |
